According to ChEMBL document CHEMBL5385881, “Design, synthesis, and discovery of Eudistomin Y derivatives as lysosome-targeted antiproliferation agents” (Eur J Med Chem, 2023):
Activity calls are given as the source filed them. The calls are words filed in the database; no cut-off is given here.

Experiments:
[1] = system: SGC-7901; assay: Cytotoxicity against human SGC-7901 cells assessed as cell inhibition measured after 72 hrs by MTT assay; format: functional, cell-based; conditions: SGC-7901, 72 h
[2] = system: HepG2; assay: Cytotoxicity against human HepG2 cells assessed as cell inhibition measured after 72 hrs by MTT assay; format: functional, cell-based; conditions: HepG2, 72 h
[3] = system: MDA-MB-231; assay: Cytotoxicity against human MDA-MB-231 cells assessed as cell inhibition measured after 72 hrs by MTT assay; format: functional, cell-based; conditions: MDA-MB-231, 72 h
[4] = system: LS180; assay: Cytotoxicity against human LS180 cells assessed as cell inhibition measured after 72 hrs by MTT assay; format: functional, cell-based; conditions: LS180, 72 h
[5] = system: A549; assay: Cytotoxicity against human A549 cells assessed as cell inhibition measured after 72 hrs by MTT assay; format: functional, cell-based; conditions: A549, 72 h
[6] = system: SGC-7901; assay: Induction of cell cycle arrest in human SGC-7901 cells assessed as accumulation of cells at S phase at 50 uM incubated for 24 hrs by PI staining based flow cytometric analysis (reference value: 40.15%); format: functional
[7] = system: MDA-MB-231; assay: Induction of autophagy in human MDA-MB-231 cells assessed as fold increase in Lamp1 level at 5 uM measured after 6 hrs by Western blot analysis relative to control; format: functional
[8] = system: MDA-MB-231; assay: Induction of autophagy in human MDA-MB-231 cells assessed as increase in acidic vesicle formation by measuring fluorescence signal from lyso-red Tracker at 10 to 20 uM measured after 24 hrs by Lyso-RedTracker staining based confocal laser-scanning microscopic analysis; format: functional, cell-based; conditions: dose 10-20 µM
[9] = system: SGC-7901; assay: Induction of cell cycle arrest in human SGC-7901 cells assessed as accumulation of cells at S phase at 20 uM incubated for 24 hrs by PI staining based flow cytometric analysis (reference value: 40.15%); format: functional
[10] = system: MDA-MB-231; assay: Induction of cell cycle arrest in human MDA-MB-231 cells assessed as accumulation of cells at G2/M phase at 5 uM incubated for 24 hrs by PI staining based flow cytometric analysis (reference value: 7.47%); format: functional
[11] = system: SGC-7901; assay: Induction of cell cycle arrest in human SGC-7901 cells assessed as accumulation of cells at G2/M phase at 10 uM incubated for 24 hrs by PI staining based flow cytometric analysis (reference value: 0.18%); format: functional
[12] = system: MDA-MB-231; assay: Induction of cell cycle arrest in human MDA-MB-231 cells assessed as accumulation of cells at G2/M phase at 10 uM incubated for 24 hrs by PI staining based flow cytometric analysis (reference value: 7.47%); format: functional
[13] = system: MDA-MB-231; assay: Induction of cell cycle arrest in human MDA-MB-231 cells assessed as accumulation of cells at S phase at 10 uM incubated for 24 hrs by PI staining based flow cytometric analysis (reference value: 29.80%); format: functional
[14] = system: MDA-MB-231; assay: Induction of cell cycle arrest in human MDA-MB-231 cells assessed as accumulation of cells at G0/G1 phase at 50 uM incubated for 24 hrs by PI staining based flow cytometric analysis (reference value: 62.73%); format: functional
[15] = system: SGC-7901; assay: Induction of cell cycle arrest in human SGC-7901 cells assessed as accumulation of cells at G0/G1 phase at 20 uM incubated for 24 hrs by PI staining based flow cytometric analysis (reference value: 59.67%); format: functional
[16] = system: SGC-7901; assay: Induction of cell cycle arrest in human SGC-7901 cells assessed as accumulation of cells at G2/M phase at 20 uM incubated for 24 hrs by PI staining based flow cytometric analysis (reference value: 0.18%); format: functional
[17] = system: SGC-7901; assay: Induction of cell cycle arrest in human SGC-7901 cells assessed as accumulation of cells at G2/M phase at 50 uM incubated for 24 hrs by PI staining based flow cytometric analysis (reference value: 0.18%); format: functional
[18] = system: MDA-MB-231; assay: Induction of autophagy in human MDA-MB-231 cells assessed as fold increase in LC3I/II protein level at 5 uM measured after 6 hrs by Western blot analysis relative to control; format: functional
[19] = system: MDA-MB-231; assay: Induction of cell cycle arrest in human MDA-MB-231 cells assessed as accumulation of cells at G2/M phase at 20 uM incubated for 24 hrs by PI staining based flow cytometric analysis (reference value: 7.47%); format: functional
[20] = Reduction in Cyclin B1 level in human MDA-MB-231 cells assessed as fold change at 10 uM measured after 72 hrs by Western blot analysis relative to control; format: functional
[21] = system: MDA-MB-231; assay: Induction of autophagy in human MDA-MB-231 cells assessed as fold increase in LC3I/II protein level at 10 uM measured after 6 hrs by Western blot analysis relative to control; format: functional
[22] = system: MDA-MB-231; assay: Induction of cell cycle arrest in human MDA-MB-231 cells assessed as accumulation of cells at G0/G1 phase at 10 uM incubated for 24 hrs by PI staining based flow cytometric analysis (reference value: 62.73%); format: functional
[23] = system: MDA-MB-231; assay: Induction of autophagy in human MDA-MB-231 cells assessed as fold increase in Lamp1 level at 10 uM measured after 6 hrs by Western blot analysis relative to control; format: functional
[24] = Reduction in Cyclin B1 level in human MDA-MB-231 cells assessed as fold change at 15 uM measured after 72 hrs by Western blot analysis relative to control; format: functional
[25] = Reduction in CDK1 level in human MDA-MB-231 cells assessed as fold change at 15 uM measured after 72 hrs by Western blot analysis relative to control; format: functional
[26] = Reduction in CDK1 level in human MDA-MB-231 cells assessed as fold change at 5 uM measured after 72 hrs by Western blot analysis relative to control; format: functional
[27] = system: SGC-7901; assay: Induction of cell cycle arrest in human SGC-7901 cells assessed as accumulation of cells at G2/M phase at 5 uM incubated for 24 hrs by PI staining based flow cytometric analysis (reference value: 0.18%); format: functional
[28] = Drug uptake in human MDA-MB-231 cells assessed as accumulation by measuring fluorescent signals at 1 uM incubated for 1 hrs by confocal laser-scanning microscopic analysis; format: ADME, cell-based; conditions: mda-mb-231, 1 h
[29] = Reduction in CDK1 level in human MDA-MB-231 cells assessed as fold change in presence of 3-MA at 15 uM measured after 72 hrs by Western blot analysis relative to control; format: functional
[30] = system: SGC-7901; assay: Induction of cell cycle arrest in human SGC-7901 cells assessed as accumulation of cells at G0/G1 phase at 5 uM incubated for 24 hrs by PI staining based flow cytometric analysis (reference value: 59.67%); format: functional
[31] = Reduction in Cyclin B1 level in human MDA-MB-231 cells assessed as fold change at 5 uM measured after 72 hrs by Western blot analysis relative to control; format: functional
[32] = system: MDA-MB-231; assay: Induction of cell cycle arrest in human MDA-MB-231 cells assessed as accumulation of cells at G2/M phase at 50 uM incubated for 24 hrs by PI staining based flow cytometric analysis (reference value: 7.47%); format: functional
[33] = system: MDA-MB-231; assay: Induction of autophagy in human MDA-MB-231 cells assessed as fold increase in LC3I/II protein level at 15 uM measured after 6 hrs by Western blot analysis relative to control; format: functional
[34] = Reduction in CDK1 level in human MDA-MB-231 cells assessed as fold change at 10 uM measured after 72 hrs by Western blot analysis relative to control; format: functional
[35] = system: MDA-MB-231; assay: Induction of cell cycle arrest in human MDA-MB-231 cells assessed as accumulation of cells at S phase at 50 uM incubated for 24 hrs by PI staining based flow cytometric analysis (reference value: 29.80%); format: functional
[36] = system: MDA-MB-231; assay: Induction of cell cycle arrest in human MDA-MB-231 cells assessed as accumulation of cells at G0/G1 phase at 5 uM incubated for 24 hrs by PI staining based flow cytometric analysis (reference value: 62.73%); format: functional
[37] = Reduction in Cyclin B1 level in human MDA-MB-231 cells assessed as fold change in presence of 3-MA at 15 uM measured after 72 hrs by Western blot analysis relative to control; format: functional
[38] = system: MDA-MB-231; assay: Antiproliferative activity against human MDA-MB-231 cells assessed as cell viability in presence of 3-MA at 10 to 50 uM measured after 72 hrs by MTT assay; format: functional, cell-based; conditions: dose 10-50 µM
[39] = system: SGC-7901; assay: Induction of cell cycle arrest in human SGC-7901 cells assessed as accumulation of cells at G0/G1 phase at 10 uM incubated for 24 hrs by PI staining based flow cytometric analysis (reference value: 59.67%); format: functional
[40] = system: SGC-7901; assay: Induction of cell cycle arrest in human SGC-7901 cells assessed as accumulation of cells at G0/G1 phase at 50 uM incubated for 24 hrs by PI staining based flow cytometric analysis (reference value: 59.67%); format: functional
[41] = system: SGC-7901; assay: Induction of cell cycle arrest in human SGC-7901 cells assessed as accumulation of cells at S phase at 5 uM incubated for 24 hrs by PI staining based flow cytometric analysis (reference value: 40.15%); format: functional
[42] = system: MDA-MB-231; assay: Induction of autophagy in human MDA-MB-231 cells assessed as increase in lysosomal membrane permeabilization by measuring red fluorescence in cytoplasm at 10 to 20 uM measured after 24 hrs by acridine orange (AO) staining assay; format: functional, cell-based; conditions: dose 10-20 µM
[43] = system: SGC-7901; assay: Induction of cell cycle arrest in human SGC-7901 cells assessed as accumulation of cells at S phase at 10 uM incubated for 24 hrs by PI staining based flow cytometric analysis (reference value: 40.15%); format: functional
[44] = system: MDA-MB-231; assay: Induction of cell cycle arrest in human MDA-MB-231 cells assessed as accumulation of cells at S phase at 5 uM incubated for 24 hrs by PI staining based flow cytometric analysis (reference value: 29.80%); format: functional
[45] = Drug uptake in human MDA-MB-231 cells assessed as accumulation by measuring lysosome-specific fluorescent signals at 2 uM incubated for 1 hrs by confocal laser-scanning microscopic analysis; format: ADME, cell-based; conditions: mda-mb-231, 1 h
[46] = system: MDA-MB-231; assay: Induction of cell cycle arrest in human MDA-MB-231 cells assessed as accumulation of cells at G0/G1 phase at 20 uM incubated for 24 hrs by PI staining based flow cytometric analysis (reference value: 62.73%); format: functional
[47] = Drug uptake in human MDA-MB-231 cells assessed as accumulation by measuring lysosome-specific fluorescent signals in presence of excess eudistomin Y1 at 1 uM incubated for 1 hrs by confocal laser-scanning microscopic analysis; format: ADME, cell-based; conditions: mda-mb-231, 1 h
[48] = system: MDA-MB-231; assay: Induction of autophagy in human MDA-MB-231 cells assessed as fold increase in Lamp1 level at 15 uM measured after 6 hrs by Western blot analysis relative to control; format: functional
[49] = system: MDA-MB-231; assay: Induction of cell cycle arrest in human MDA-MB-231 cells assessed as accumulation of cells at S phase at 20 uM incubated for 24 hrs by PI staining based flow cytometric analysis (reference value: 29.80%); format: functional

O=C(c1ccccc1)c1nccc2c1[nH]c1ccccc12
IC50 [1]: 345 µM | IC50 [2]: 244 µM | IC50 [3]: 66.1 µM | IC50 [4]: 258 µM | IC50 [5]: 74.3 µM

O=c1[nH]cc(F)c(=O)[nH]1 [FLUOROURACIL]
IC50 [1]: 13.1 µM | IC50 [3]: 67.5 µM | IC50 [4]: 3.4 µM | IC50 [5]: 1.3 µM

O=C(c1ccc(O)cc1)c1nccc2c1[nH]c1ccccc12 [EUDISTOMIN Y1]
IC50 [1]: 119 µM | IC50 [2]: 126 µM | IC50 [3]: 129 µM | IC50 [4]: 89.8 µM | IC50 [5]: 71.9 µM

COc1ccc(Cn2c3ccccc3c3ccnc(C(=O)c4ccccc4)c32)cc1
IC50 [1]: 12.1 µM | Activity [6]: 45.27% | fold change (FC) [7]: 1.04 | Activity [8]: Active | Activity [9]: 32.61% | Activity [10]: 14.71% | Activity [11]: 56.48% | Activity [12]: 18.53% | Activity [13]: 31.51% | Activity [14]: 12.51% | Activity [15]: 6.9% | Activity [16]: 60.49% | Activity [17]: 50.5% | fold change (FC) [18]: 1.12 | Activity [19]: 48.37% | fold change (FC) [20]: 0.98 | fold change (FC) [21]: 1.39 | Activity [22]: 49.96% | IC50 [2]: 9.6 µM | fold change (FC) [23]: 1.21 | fold change (FC) [24]: 0.66 | fold change (FC) [25]: 0.5 | fold change (FC) [26]: 0.78 | Activity [27]: 18.43% | Drug uptake [28]: Active | fold change (FC) [29]: 0.78 | Activity [30]: 41.36% | fold change (FC) [31]: 1.01 | Activity [32]: 75.93% | fold change (FC) [33]: 1.51 | fold change (FC) [34]: 0.52 | Activity [35]: 11.55% | Activity [36]: 64.23% | IC50 [3]: 20.5 µM | fold change (FC) [37]: 0.8 | Activity [38]: inactive | Activity [39]: 8% | Activity [40]: 4.23% | IC50 [4]: 2.9 µM | Activity [41]: 40.21% | Activity [42]: Active | IC50 [5]: 14.8 µM | Activity [43]: 35.51% | Activity [44]: 21.05% | Drug uptake [45]: Active | Activity [46]: 29.13% | Drug uptake [47]: Not Active | fold change (FC) [48]: 1.39 | Activity [49]: 22.49%

Cn1c2ccccc2c2ccnc(C(=O)c3ccc(OCc4ccccc4)cc3)c21
IC50 [1]: 40.2 µM | IC50 [2]: 62.4 µM | IC50 [3]: 19.8 µM | IC50 [4]: 33.6 µM | IC50 [5]: 34.2 µM
